“And” between values parts separate entries of the source, which are not always exact repeats. Equal values may be shown once.

Consider one compound from patent US20250381131A1, “COMPOSITION AND METHOD FOR INHIBITING ELASTASE ACTIVITY” (ACCESS BUSINESS GROUP INTERNATIONAL LLC, priority 2022, published 2025).

The target in the assay is Porcine pancreatic elastase (PPE) (Sus scrofa, UniProt P00772). Briefly: Porcine pancreatic elastase (PPE) enzyme inhibitory assay. The class given is biochemical. The following applies: for Average % inhibition: average of three; for Inhibition Rate (%): single determination. Here is the method:
The elastase inhibitory activity of certain plant extracts was evaluated in vitro using Porcine pancreatic elastase (PPE) enzyme inhibitory assay as described by Cannel et al. (1988) with some modifications. The assay was performed in 0.2 M Tris-HCL buffer (pH 8.0). Porcine pancreatic elastase was dissolved to make a 100 unit stock solution in sterile water. The substrate N-Succinyl-Ala-Ala-Ala-p-nitroanilide (AAAPVN) was dissolved in buffer. The plant extracts were incubated with the enzyme for 25 minutes before adding the substrate to begin the reaction. […] EGCG was used as a positive control, and tris-HCl was used as the blank.
Maximum Velocities (Vmax) were taken at a wavelength of 410 nm for 25 minutes at 30 second intervals. Percentage inhibitions were calculated by the following equation: […]
where Vmax(sample) is the velocity of the sample extracts and Vmax(control) is the velocity of the assay using the buffer instead of inhibitor (sample).

Chain of Porcine pancreatic elastase (PPE) (P00772 27-266): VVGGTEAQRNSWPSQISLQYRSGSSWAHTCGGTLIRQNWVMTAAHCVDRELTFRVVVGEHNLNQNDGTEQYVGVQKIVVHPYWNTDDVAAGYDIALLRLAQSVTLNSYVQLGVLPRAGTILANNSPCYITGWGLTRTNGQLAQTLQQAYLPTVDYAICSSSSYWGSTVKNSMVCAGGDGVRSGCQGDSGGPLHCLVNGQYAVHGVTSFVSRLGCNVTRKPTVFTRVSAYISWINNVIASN

As to `O=C(O[C@@H]1Cc2c(O)cc(O)cc2O[C@@H]1c1cc(O)c(O)c(O)c1)c1cc(O)c(O)c(O)c1` [EGCG, epigallocatechin gallate], the Average % inhibition is reported as 4.80% (31.25 μg/ml); 15.57% (62.5 μg/ml); 36.25% (125 μg/ml); 41.56% (250 μg/ml); 43.47% (500 μg/ml); 48.97% (1000 μg/ml). The Average % inhibition (2000 μg/ml) was determined as 52.78%. The “Inhibition Rate (%)” value runs as follows: (31.25 μg/ml) 6.76% and 1.06% and 6.58%; (62.5 μg/ml) 20.43% and 14.78% and 11.52%; (125 μg/ml) 39.69% and 35.13% and 33.94%; (250 μg/ml) 45.23% and 41.13% and 38.32%; (500 μg/ml) 45.20% and 41.64% and 43.58%; (1000 μg/ml) 49.48% and 47.89% and 49.56%. Also, the “Inhibition Rate (%)” value (2000 μg/ml) is 52.32% and 52.75% and 53.28%.
